Data reported in US6451819B2, “Heterocyclic compounds useful as NMDA receptor selective subtype blockers” (Hoffmann-La Roche Inc., priority 2000, dated 2002).

Molecular target: T1, NMDA receptor (3H-Ro 25-6981 binding site), rat brain membranes (Rattus norvegicus, UniProt P35439+Q00960)
T1 construct: Membranes were prepared by homogenization of the whole brain minus cerebellum and medulla oblongata; from tissue; host or cells: rat whole brain minus cerebellum and medulla oblongata, membrane preparation
T1 sequence (Q00960 27-1482, other chains not shown): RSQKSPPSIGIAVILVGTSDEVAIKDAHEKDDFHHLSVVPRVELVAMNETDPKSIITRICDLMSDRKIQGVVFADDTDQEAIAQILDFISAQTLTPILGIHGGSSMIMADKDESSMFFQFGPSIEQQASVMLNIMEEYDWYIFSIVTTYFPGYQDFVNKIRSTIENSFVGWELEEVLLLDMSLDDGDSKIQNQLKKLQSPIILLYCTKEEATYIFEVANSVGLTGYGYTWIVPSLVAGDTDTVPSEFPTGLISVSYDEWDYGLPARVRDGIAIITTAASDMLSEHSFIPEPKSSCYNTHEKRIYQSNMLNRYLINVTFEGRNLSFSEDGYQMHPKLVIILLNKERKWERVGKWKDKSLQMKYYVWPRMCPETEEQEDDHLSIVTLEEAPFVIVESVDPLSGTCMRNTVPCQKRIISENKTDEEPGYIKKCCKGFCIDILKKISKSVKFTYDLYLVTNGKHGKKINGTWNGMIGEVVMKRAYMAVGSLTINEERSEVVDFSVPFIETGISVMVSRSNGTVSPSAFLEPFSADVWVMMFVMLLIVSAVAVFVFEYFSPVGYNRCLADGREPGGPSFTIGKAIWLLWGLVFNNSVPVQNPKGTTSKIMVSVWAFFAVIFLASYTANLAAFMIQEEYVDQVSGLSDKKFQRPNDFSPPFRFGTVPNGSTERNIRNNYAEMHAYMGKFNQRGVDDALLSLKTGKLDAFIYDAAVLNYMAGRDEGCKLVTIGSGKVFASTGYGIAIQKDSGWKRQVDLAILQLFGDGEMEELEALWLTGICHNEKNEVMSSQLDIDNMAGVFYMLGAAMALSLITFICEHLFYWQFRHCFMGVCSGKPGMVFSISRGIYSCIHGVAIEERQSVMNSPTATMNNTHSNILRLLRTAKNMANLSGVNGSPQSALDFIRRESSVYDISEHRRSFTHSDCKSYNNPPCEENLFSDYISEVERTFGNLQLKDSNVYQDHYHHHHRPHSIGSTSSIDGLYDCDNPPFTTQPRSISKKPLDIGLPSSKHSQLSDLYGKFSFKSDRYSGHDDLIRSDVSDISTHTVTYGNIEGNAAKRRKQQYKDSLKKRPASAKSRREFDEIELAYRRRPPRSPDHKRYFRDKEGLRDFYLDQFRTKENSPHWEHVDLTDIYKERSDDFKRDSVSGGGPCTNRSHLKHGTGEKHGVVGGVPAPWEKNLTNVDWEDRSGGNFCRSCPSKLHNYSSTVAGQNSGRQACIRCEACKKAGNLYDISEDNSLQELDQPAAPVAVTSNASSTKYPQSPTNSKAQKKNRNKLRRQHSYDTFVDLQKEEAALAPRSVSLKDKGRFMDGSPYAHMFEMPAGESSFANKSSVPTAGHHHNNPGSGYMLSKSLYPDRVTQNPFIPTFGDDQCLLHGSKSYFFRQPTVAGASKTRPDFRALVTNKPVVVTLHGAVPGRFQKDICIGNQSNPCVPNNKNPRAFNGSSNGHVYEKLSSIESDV
Experiment: 3H-Ro 25-6981 binding
Conditions: not given
Protocol: 3H-Ro 25-6981 binding (Ro 25-6981 is [R—(R*,S*)]-a-(4-hydroxy-phenyl)-b-methyl-4-(phenyl-methyl)-1-piperidine propanol)
Male Füllinsdorf albino rats weighing between 150-200 g were used. Membranes were prepared by homogenization of the whole brain minus cerebellum and medulla oblongata with a Polytron (10,000 rpm, 30 seconds), in 25 volumes of a cold Tris-HCl 50 mM, EDTA 10 mM, pH 7.1 buffer. The homogenate was centrifuged at 48,000 g for 10 minutes at 4° C. The pellet was resuspended using the Polytron in the same volume of buffer and the homogenate was incubated at 37° C. for 10 minutes. After centrifugation the pellet was homogenized in the same buffer and frozen at −80° C. for at least 16 hours but not more than 10 days. For the binding assay the homogenate was thawed at 37° C., centrifuged and the pellet was washed three times as above in a Tris-HCl 5 mM, pH 7.4 cold buffer. The final pellet was resuspended in the same buffer and used at a final concentration of […].
3H-Ro 25-6981 binding experiments were performed using a Tris-HCl 50 mM, pH 7.4 buffer. For displacement experiments 5 nM of 3H-Ro 25-6981 were used and non-specific binding was measured using 10 mM of tetrahydroisoquinoline and usually it accounts for 10% of the total. The incubation time was 2 hours at 4° C. and the assay was stopped by filtration on Whatman GF/B glass fiber filters (Unifilter-96, Packard, Zürich, Switzerland). The filters were washed 5 times with cold buffer. The radioactivity on the filter was counted on a Packard Top-count microplate scintillation counter after addition of […] of microscint 40 (Canberra Packard S.A., Zürich, Switzerland).
The effects of compounds were measured using a minimum of 8 concentrations and repeated at least once. The pooled normalized values were analyzed using a non-linear regression calculation program which provide IC50 with their relative upper and lower 95% confidence limits (RS1, BBN, USA).

| Compound | IC50 [nM] |
| --- | --- |
| O=S(=O)(c1ccc(O)cc1)[C@H]1CCN(CC(F)CCc2ccccc2)C1 (mixture of isomers) [Example 35, (2R,3S) and (2S,3S)-4-[1-(2-Fluoro-4-phenyl-butyl)-pyrrolidine-3-sulfonyl]-phenol] | 29 |
| Oc1ccc(S[C@H]2CCN(CC(F)CCc3ccccc3)C2)cc1 (mixture of isomers) [Example 68, (2RS,3S)-4-[1-(2-Fluoro-4-phenyl-butyl)-pyrrolidin-3-ylsulfanyl]-phenol] | 77 |

Same assay, conditions: displacement of 5 nM 3H-Ro 25-6981, rat whole brain minus cerebellum and medulla oblongata membranes, 2 hours at 4° C.; read-out: IC50

| Compound | IC50 [nM] |
| --- | --- |
| O=S(=O)(c1ccc(O)cc1)[C@H]1CCN(CC(O)C2Cc3ccccc3C2)C1 (mixture of isomers) [Example 43, (2R,3S) and (2S,3S)-4-[1-(2-Hydroxy-2-indan-2-yl-ethyl)-pyrrolidine-3-sulfonyl]-phenol] | 31 |
| O=S(=O)(c1ccc(O)cc1)[C@@H]1CN(CCCCc2ccccc2)C[C@H]1O (racemic) [Example 16, (3RS,4RS)-4-(4-Hydroxy-benzenesulfonyl)-1-(4-phenyl-butyl)-pyrrolidin-3-ol] | 80 |
| O=S(=O)(c1ccc(O)cc1)C1CCN([C@H]2CC[C@@H](c3ccccc3)CC2)C1 (relative stereo) [Example 6, (3RS,cis)-4-[1-(4-Phenyl-cyclohexyl)-pyrrolidine-3-sulfonyl]-phenol] | 59 |
| Oc1ccc(S[C@H]2CCN(CCCCc3ccccc3)C2)cc1 [Example 2, (S)-4-[1-(4-Phenyl-butyl)-pyrrolidin-3-yl-sulfanyl]-phenol] | 9 |
| Oc1ccc(S[C@@H]2CCN(CCCCc3ccccc3)C2)cc1 [Example 3, (R)-4-[1-(4-Phenyl-butyl)-pyrrolidin-3-yl-sulfanyl]-phenol] | 20 |
| O=S(=O)(c1ccc(O)cc1)C1CCN(C2CC(Cc3ccccc3)C2)C1 (stereo not drawn) [Example 4, (3RS,cis) and (3RS,trans)-4-[1-(3-Benzyl-cyclobutyl)-pyrrolidine-3-sulfonyl]-phenol] | 40 |
| [O-][S@@+](c1ccc(O)cc1)[C@H]1CCN(C[C@@H](F)CCc2ccccc2)C1 [Example 62, (2S,3S,S-oxide R)-4-[1-(2-Fluoro-4-phenyl-butyl)-pyrrolidine-3-sulfinyl]-phenol] | 60 |

Test system: not given
Experiment: not given
Conditions: not given

| Compound | melting point [°C] |
| --- | --- |
| Cl.O=S(=O)(c1ccc(O)cc1)C1CCN(CCCCc2ccccc2)C1 (racemic) | 121 to 124 |
